Data on 8 molecules can be found in US10329309B2, “3-(3H-imidazo[4,5-B]pyridin-2-yl)-1H-pyrazolo[4,3-B]pyridines and therapeutic uses thereof” (Samumed, LLC, priority 2015, dated 2019).

Holding throughout (format): cell-based
Test [1] relates to Wnt activity (Sp5-Luc reporter, SW480 colon carcinoma cells). Nature of the test: Screening assay for Wnt activity: Sp5-Luc reporter gene assay in SW480 cells. To be noted: Homo sapiens; for inhibition at 10 µM: 10 μM compound, read-out: percent inhibition at 10 μM (given for EC50 of >10 μM); for pEC50: overnight incubation, 10-point dose-response from 10 μM. Put shortly: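 SW480 cells stably carrying Sp5-Luc reporter (eight TCF/LEF sites) plated at 4,000/well in 1% FBS medium with compound (10-point 1:3 series from 10 μM, 0.1% DMSO) overnight at 37 °C. BrightGlo luminescence normalized to DMSO; EC50 by four-parameter fit, else % inhibition at 10 μM.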

Test [2] concerns SW480 colon cancer cells. As to the kind of experiment: Cell viability assay (CellTiter-Blue), four days. Conditions: Homo sapiens, 96 h; for pEC50: CellTiter-Blue cell viability; for inhibition at 10 µM: read-out: percent inhibition at 10 μM (given for EC50 of >10 μM). In outline:
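Approximately 2×10^3 SW480 cells per well are seeded with compound (8 points, threefold steps, top 10 μM) and incubated four days at 37 °C. CellTiter-Blue is then added for about 3 h and fluorescence read. Non-linear regression gives EC50; for values beyond 10 μM, percent inhibition at that concentration is listed.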

Test [3] relates to IL-6 (THP-1 cells). Nature of the test: Inhibition of IL-6 in LPS-stimulated THP-1 monocytes (HTRF). To be noted: Homo sapiens; for pEC50: LPS 500 ng/mL, IL-6 by HTRF; for inhibition at 10 µM: LPS stimulated, IL-6, at 10 μM, read-out: percent inhibition at 10 μM (given for EC50 of >10 μM). In outline:
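THP-1 cells, serum-starved in 1% FBS for 24 h, were pre-incubated 2 h with compound (10-point, 1:3 from 10 μM, 0.1% DMSO), then stimulated with 500 ng/mL LPS for 22 h at 37 °C. IL-6 was quantified by HTRF 665/620 ratio. EC50 was fitted from DMSO-normalized data; above 10 μM, % inhibition at 10 μM is given.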

The structures appear in SMILES notation. pEC50: −log10 of the molar value.

In the case of `CCCC(=O)Nc1cncc(-c2ccc3[nH]nc(-c4nc5c(-c6ccncc6)ccnc5[nH]4)c3n2)c1` [Compound 129, N-(5-(3-(7-(pyridin-4-yl)-3H-imidazo[4,5-b]pyridin-2-yl)-1H-pyrazolo[4,3-b]pyridin-5-yl)pyridin-3-yl)butyramide], the inhibition at 10 µM in test [1] was found to be 4.3%; in test [2], 5.7%; in test [3], 14.9%. Further, the pEC50 in test [1], in test [2] and in test [3] was under 5.00 throughout.

Take `COc1cccc(-c2ccnc3[nH]c(-c4n[nH]c5ccc(-c6cncc(OC7CCNCC7)c6)nc45)nc23)c1` [Compound 1025, 3-(7-(3-Methoxyphenyl)-3H-imidazo[4,5-b]pyridin-2-yl)-5-(5-(piperidin-4-yloxy)pyridin-3-yl)-1H-pyrazolo[4,3-b]pyridine]: the inhibition at 10 µM in test [1] was determined as 39.2%; in test [2] it was 15.8%; in test [3], 26.5%. In addition, the pEC50 in test [1], in test [2] and in test [3] was under 5.00 each time.

With `Fc1cccc(-c2ccnc3[nH]c(-c4n[nH]c5ccc(-c6cncc(OC7CCNCC7)c6)nc45)nc23)c1` [Compound 512, 3-(7-(3-fluorophenyl)-3H-imidazo[4,5-b]pyridin-2-yl)-5-(5-(piperidin-4-yloxy)pyridin-3-yl)-1H-pyrazolo[4,3-b]pyridine], the inhibition at 10 µM in test [1] came to 45%; in test [2], 15.7%; in test [3], 35.7%. Moreover, the pEC50 in test [1], in test [2] and in test [3] was under 5.00 each time.

For `c1cc(-c2ccc3[nH]nc(-c4nc5c(-c6ccncc6)ccnc5[nH]4)c3n2)ccn1` [Compound 130, 5-(pyridin-4-yl)-3-(7-(pyridin-4-yl)-3H-imidazo[4,5-b]pyridin-2-yl)-1H-pyrazolo [4,3-b]pyridine], the inhibition at 10 µM in test [1] is 12.1%; in test [2] it was 0%; in test [3], 18.9%. Moreover, the pEC50 in test [1], in test [2] and in test [3] was under 5.00 throughout.

Take `CN(C)CCNc1cc(F)cc(-c2ccnc3[nH]c(-c4n[nH]c5ccc(-c6cncc(OCCN7CCCC7)c6)nc45)nc23)c1` [Compound 786, N^1-(3-Fluoro-5-(2-(5-(5-(2-(pyrrolidin-1-yl)ethoxy)pyridin-3-yl)-1H-pyrazolo[4,3-b]pyridin-3-yl)-3H-imidazo[4,5-b]pyridin-7-yl)phenyl)-N^2,N^2-dimethylethane-1,2-diamine]: the pEC50 in test [1] is 5.20; in test [2] it was 5.01; in test [3], under 5.00. Also, in test [3], the inhibition at 10 µM was 0%.

Turning to `Nc1cncc(-c2ccc3[nH]nc(-c4nc5c(-c6ccccc6F)ccnc5[nH]4)c3n2)c1` [Compound 59, 5-(3-(7-(2-fluorophenyl)-3H-imidazo[4,5-b]pyridin-2-yl)-1H-pyrazolo[4,3-b]pyridin-5-yl)pyridin-3-amine], the figures for the inhibition at 10 µM in test [1] and in test [2] were 46.5% and 21.5%, respectively. Further, the pEC50 in test [1] was under 5.00; in test [2] it was under 5.00; in test [3], 5.67.

Regarding `Cn1cc(-c2ccc3[nH]nc(-c4nc5c(N6CCCCC6)ccnc5[nH]4)c3n2)c(CO)n1` [Compound 1134, (1-Methyl-4-(3-(7-(piperidin-1-yl)-3H-imidazo[4,5-b]pyridin-2-yl)-1H-pyrazolo[4,3-b]pyridin-5-yl)-1H-pyrazol-3-yl)methanol], the inhibition at 10 µM in test [1] turned out to be 4%; in test [2], 18.1%; in test [3], 12.6%. Moreover, the pEC50 in test [1], in test [2] and in test [3] was under 5.00 throughout.

As to `CCC(=O)Nc1cncc(-c2ccc3[nH]nc(-c4nc5c(-c6cccc(F)c6)ccnc5[nH]4)c3n2)c1` [Compound 1, N-(5-(3-(7-(3-fluorophenyl)-3H-imidazo[4,5-b]pyridin-2-yl)-1H-pyrazolo [4,3-b]pyridin-5-yl)pyridin-3-yl)propionamide], the inhibition at 10 µM was 51.6% in test [1], 19.9% in test [2] and 3.5% in test [3]. Further, the pEC50 in test [1], in test [2] and in test [3] was under 5.00 each time.
